Source: patent publication US8017727B2, “Conjugates of membrane translocating agents and pharmaceutically active agents” (Merrion Research III Limited, priority 1999, dated 2011)
Read-outs that look alike come from different tables or passages of the source.

Key:
[1] = 3H tissue distribution of kappa peptide conjugates, conscious rat model; assay type: in vivo, Wistar rats; conditions: potency corrected; for Kidney, % of administered dose / Plasma, % of administered dose / Total Recovery, % of administered dose: t=6 h
Protocol: The tissue was weighed and a representative sample, (ca 0.1 g), was removed to a scintillation vial. The tissue was solubilzed with 1 ml of BTS-450 (an organic tissue solubliser). Ten ml of scintillation fluid was added and the radioactivity was measured. The radioactivity was expressed as dpm/initial weight of tissue.

[2] = Systemic 3H bioavailability of kappa peptide conjugates, conscious rat model (plasma); assay type: in vivo, Wistar rats
Protocol: The possible enhancing effects of ELAN094 and ELAN207 MTLPs (SEQ ID NOs 2 and 60) on intestinal absorption of the kappa peptide were examined in a conscious rat model.
The study was non-randomised, parallel group design. Wistar rats within the 250-350 g weight range were used. All animals were fasted for a period of 16 h prior to study initiation. Water was available at all times.
Intravenous injection of 10 μCi of ^3H-kappa peptide-Kaffiralin-1 (plain kappa peptide) (tail vein injection).
Intraduodenal instillation of 100 μCi of ^3H-kappa peptide-Elan094 (Analysed). The Elan094 ligand contains a membrane translocating sequence.
Intraduodenal instillation of 100 μCi of ^3H-kappa peptide-Elan207 (Analysed). The Elan207 ligand contains a membrane translocating sequence.
Intraduodenal instillation of 100 μCi of ^3H-kappa peptide-Kaffiralin-1.
The plasma (100-250 μl) was made up to 1 ml with BTS-450 (an organic tissue solubiliser) and incubated for 1 hour. Ten ml of Scintillation fluid was added and the radioactivity was measured.
The study was a non-randomised, parallel group biostudy designed to evaluate the systemic bioavailability of tritium labelled kappa peptide conjugates after intra-duodenal instillation in the conscious rat model. Each rat only received one treatment and the plasma samples were analysed for tritium content. The calculation of AUClast, Amax, tmax, Volume of Distribution (V d) and Clearance was based on base line corrected data. The absolute bioavailability was calculated using potency corrected data.

kappa receptor = molecular target: T1, kappa receptor (Rattus norvegicus, UniProt P34975); assay: Competition for binding of a radiolabelled kappa peptide to rat brain homogenates; conditions: for opioid activity post conjugation: compared to unconjugated H-ffir-NH2 or to the ELAN207 conjugate
T1 construct: from tissue; host or cells: rat brain homogenate
Protocol: The integrity of the opioid peptide was evaluated post conjugation to assess suitability for inclusion in further studies. Opioid activity was assessed in vitro using a competition assay (competition for binding of a radiolabelled kappa peptide to rat brain homogenates).

[3] = IV, 10 μCi, listed as 3H Kappa peptide-Kaffiralin-1
[4] = intraduodenal (ID), 100 μCi, Elan207 = original group
[5] = IC50, Table 11, first IC50 column

CC[C@@H](C)[C@@H](NC(=O)[C@@H](Cc1ccccc1)NC(=O)[C@H](N)Cc1ccccc1)C(=O)N[C@H](CCCNC(=N)N)C(N)=O [3H-Kappa peptide-Kaffiralin-1]
Catheter, % of administered dose ([1]; ID, 100 μCi): 0.06 ± 0.05% | GI Tissue, % of administered dose ([1]; ID, 100 μCi): 7.72 ± 4.98% | GI Washing, % of administered dose ([1]; ID, 100 μCi): 15.85 ± 5.00% | GI contents, % of administered dose ([1]; ID, 100 μCi): 37.31 ± 15.75% | Liver, % of administered dose ([1]; ID, 100 μCi): 0.63 ± 0.37% | Total GI (% recovery from GI tissue, GI contents & GI wash) ([1]; ID, 100 μCi): 60.87 ± 16.74% | Kidney, % of administered dose ([1]; ID, 100 μCi): 0.16 ± 0.17% | Plasma, % of administered dose ([1]; ID, 100 μCi): 0.06 ± 0.01% | Total Recovery, % of administered dose ([1]; ID, 100 μCi): 61.79 ± 16.93% | Plasma, % of administered dose ([1]; ID, 100 μCi, listed as 3H-Kappa peptide Kaffiralin-1): 0.06±0.01% | GI Tissue, % of administered dose ([1]; IV, 10 μCi): 1.62 ± 0.41% | GI Washing, % of administered dose ([1]; IV, 10 μCi): 1.98 ± 1.01% | GI contents, % of administered dose ([1]; IV, 10 μCi): 23.50 ± 11.04% | Liver, % of administered dose ([1]; IV, 10 μCi): 6.66 ± 1.77% | Total GI (% recovery from GI tissue, GI contents & GI wash) ([1]; IV, 10 μCi): 27.10 ± 11.93% | Liver, % of administered dose [1, 3]: 6.66±1.77% | Kidney, % of administered dose ([1]; IV, 10 μCi): 0.51 ± 0.08% | Plasma, % of administered dose ([1]; IV, 10 μCi): 0.16 ± 0.03% | Total Recovery, % of administered dose ([1]; IV, 10 μCi): 34.43 ± 13.36% | Plasma, % of administered dose [1, 3]: 0.16±0.03% | Total Recovery, % of administered dose ([1]; IV, 10 μCi, listed as 3H Kappa-peptide-Kaffiralin-1): 34.43±13.36% | 3H AUClast [2, 4]: 73098.43±9493.88 dpm/ml·h | 3H Amax (maximum radioactivity) [2, 4]: 70925.33±23631.28 dpm/ml | 3H AUClast ([2]; intravenous (IV), 10 μCi): 132184.24±13288.32 dpm/ml·h | 3H Amax (maximum radioactivity) ([2]; intravenous (IV), 10 μCi): 903603.03±186855.31 dpm/ml | bioavailability ([2]; rat, plasma, intraduodenal (ID), 100 μCi, potency corrected, Elan207 = original group, read-out: Absolute 3H bioavailability): 7.94 ± 1.92% | clearance ([2]; rat, plasma, intravenous (IV), 10 μCi): 2.38 mL/min | Vd ([2]; rat, plasma, intravenous (IV), 10 μCi, read-out: Volume of Distribution): 0.964 ± 0.256 L

CC[C@@H](C)[C@@H](NC(=O)[C@@H](Cc1ccccc1)NC(=O)[C@H](N)Cc1ccccc1)C(=O)N[C@H](CCCNC(=N)N)C(=O)N[C@H](CCCCNC(=O)[C@H]1CCCN1C(=O)[C@@H](C)NC(=O)[C@@H](C)NC(=O)[C@@H](CC(C)C)NC(=O)[C@@H](CC(C)C)NC(=O)[C@H](NC(=O)[C@H]1CCCN1C(=O)[C@@H](CC(C)C)NC(=O)[C@@H](CC(C)C)NC(=O)[C@H](NC(=O)[C@@H](C)NC(=O)[C@@H](C)NC(=O)[C@@H](C)NC(=O)[C@@H](CCCCN)NC(=O)[C@H](N)CCCCN)C(C)C)C(C)C)C(N)=O [P10-110, H-ffirk(kkaaavllpvllaap-NH-e)-NH2]
opioid activity post conjugation (kappa receptor): significantly reduced

CC[C@@H](C)[C@@H](NC(=O)[C@@H](Cc1ccccc1)NC(=O)[C@H](N)Cc1ccccc1)C(=O)N[C@H](CCCNC(=N)N)C(=O)NCCCC[C@@H](NC(=O)[C@H]1CCCN1C(=O)[C@@H](C)NC(=O)[C@@H](C)NC(=O)[C@@H](CC(C)C)NC(=O)[C@@H](CC(C)C)NC(=O)[C@H](NC(=O)[C@H]1CCCN1C(=O)[C@@H](CC(C)C)NC(=O)[C@@H](CC(C)C)NC(=O)[C@H](NC(=O)[C@@H](C)NC(=O)[C@@H](C)NC(=O)[C@@H](C)NC(=O)[C@@H](CCCCN)NC(=O)[C@@H](CCCCN)NC(=O)[C@@H](N)CCCCNC(=O)CCCCCNC(=O)CCCC[C@@H]1SC[C@@H]2NC(=O)N[C@@H]21)C(C)C)C(C)C)C(N)=O [P34-154, H-K(biotin-LC)kkaaavllpvllaapk(ffir-NH-e)-NH2]
opioid activity post conjugation (kappa receptor): retained activity

CC[C@@H](C)[C@@H](NC(=O)[C@@H](Cc1ccccc1)NC(=O)[C@H](N)Cc1ccccc1)C(=O)N[C@H](CCCNC(=N)N)C(=O)NCCCC[C@H](NC(=O)[C@@H]1CSSC[C@H](NC(=O)[C@H](CCCCN)NC(=O)[C@H](CCCCN)NC(=O)[C@@H](N)CCCCNC(=O)CCCCCNC(=O)CCCC[C@@H]2SC[C@@H]3NC(=O)N[C@@H]32)C(=O)N[C@@H](C)C(=O)N[C@@H](C)C(=O)N[C@@H](C(C)C)C(=O)N[C@@H](CC(C)C)C(=O)N[C@@H](CC(C)C)C(=O)N2CCC[C@H]2C(=O)N[C@@H](C(C)C)C(=O)N[C@@H](CC(C)C)C(=O)N[C@@H](CC(C)C)C(=O)N[C@@H](C)C(=O)N1)C(N)=O [P37-116]
IC50 (kappa receptor; [5]): 0.2 nM | opioid activity post conjugation (kappa receptor): activity equivalent to that observed with ELAN207

CC[C@@H](C)[C@@H](NC(=O)[C@@H](Cc1ccccc1)NC(=O)[C@H](N)Cc1ccccc1)C(=O)N[C@H](CCCNC(=N)N)C(=O)NCCCC[C@H](NC(=O)[C@@H]1CCCN1C(=O)[C@H](C)NC(=O)[C@H](C)NC(=O)[C@H](CC(C)C)NC(=O)[C@H](CC(C)C)NC(=O)[C@@H](NC(=O)[C@@H]1CCCN1C(=O)[C@H](CC(C)C)NC(=O)[C@H](CC(C)C)NC(=O)[C@@H](NC(=O)[C@H](C)NC(=O)[C@H](C)NC(=O)[C@H](C)NC(=O)[C@H](CCCCN)NC(=O)[C@H](CCCCN)NC(=O)[C@@H](N)CCCCNC(=O)CCCCCNC(=O)CCCC[C@@H]1SC[C@@H]2NC(=O)N[C@@H]21)C(C)C)C(C)C)C(N)=O [P37-114]
IC50 (kappa receptor; [5]): 0.4 nM | opioid activity post conjugation (kappa receptor): activity equivalent to that observed with ELAN207

CC[C@@H](C)[C@@H](NC(=O)[C@@H](Cc1ccccc1)NC(=O)[C@H](N)Cc1ccccc1)C(=O)N[C@H](CCCNC(=N)N)C(=O)NCCCC[C@@H](NC(=O)[C@H]1CCCN1C(=O)[C@@H](C)NC(=O)[C@@H](C)NC(=O)[C@@H](CC(C)C)NC(=O)[C@@H](CC(C)C)NC(=O)[C@H](NC(=O)[C@H]1CCCN1C(=O)[C@@H](CC(C)C)NC(=O)[C@@H](CC(C)C)NC(=O)[C@H](NC(=O)[C@@H](C)NC(=O)[C@@H](C)NC(=O)[C@@H](C)NC(=O)[C@@H](CCCCN)NC(=O)[C@H](N)CCCCN)C(C)C)C(C)C)C(N)=O [P10-114, H-kkaaavllpvllaapk(ffir-NH-e)-NH2]
IC50 (kappa receptor; Day 5, second of duplicates, read-out: IC50): 1 nM | IC50 (kappa receptor; Day 82, first of triplicates, read-out: IC50): 0.8 nM | IC50 (kappa receptor; Day 82, second of triplicates, read-out: IC50): 0.8 nM | opioid activity post conjugation (kappa receptor): retained, or even enhanced

CC[C@@H](C)[C@@H](NC(=O)[C@@H](Cc1ccccc1)NC(=O)[C@H](N)Cc1ccccc1)C(=O)N[C@H](CCCNC(=N)N)C(=O)NCCCC[C@H](NC(=O)[C@@H](CCCCN)NC(=O)[C@@H](CCCCN)NC(=O)[C@@H](C)NC(=O)[C@@H](C)NC(=O)[C@@H](C)NC(=O)[C@H](NC(=O)[C@@H](CC(C)C)NC(=O)[C@@H](CC(C)C)NC(=O)[C@H]1CCCN1C(=O)[C@H](NC(=O)[C@@H](CC(C)C)NC(=O)[C@@H](CC(C)C)NC(=O)[C@@H](C)NC(=O)[C@@H](C)NC(=O)[C@H]1CCCN1C(=O)[C@@H](N)CCCCNC(=O)CCCCCNC(=O)CCCC[C@@H]1SC[C@@H]2NC(=O)N[C@@H]21)C(C)C)C(C)C)C(N)=O [P37-115, H-K(biotin-LC)paallvpllvaaakkK(ffir-NH-e)-NH2]
opioid activity post conjugation (kappa receptor): activity equivalent to that observed with ELAN207
